Measured values reported in patent US20240010704A1, “CHIMERIC SENSOR PROTEIN AND METHODS OF USE THEREOF” (Universitaet Leipzig, priority 2020, published 2024).

Tests used:
γ-secretase = target: T1, γ-secretase (Drosophila melanogaster, UniProt O02194); experiment: Luciferase reporter assay in S2 cells, pharmacological inhibition of γ-secretase activity by DAPT; assay type: cell-based; settings: for reporter activity without DAPT vs. with 10 μM DAPT: FIG. 8C
T1 construct: endogenous in cells; host or cells: Drosophila S2 cells
T1 sequence (O02194 whole entry): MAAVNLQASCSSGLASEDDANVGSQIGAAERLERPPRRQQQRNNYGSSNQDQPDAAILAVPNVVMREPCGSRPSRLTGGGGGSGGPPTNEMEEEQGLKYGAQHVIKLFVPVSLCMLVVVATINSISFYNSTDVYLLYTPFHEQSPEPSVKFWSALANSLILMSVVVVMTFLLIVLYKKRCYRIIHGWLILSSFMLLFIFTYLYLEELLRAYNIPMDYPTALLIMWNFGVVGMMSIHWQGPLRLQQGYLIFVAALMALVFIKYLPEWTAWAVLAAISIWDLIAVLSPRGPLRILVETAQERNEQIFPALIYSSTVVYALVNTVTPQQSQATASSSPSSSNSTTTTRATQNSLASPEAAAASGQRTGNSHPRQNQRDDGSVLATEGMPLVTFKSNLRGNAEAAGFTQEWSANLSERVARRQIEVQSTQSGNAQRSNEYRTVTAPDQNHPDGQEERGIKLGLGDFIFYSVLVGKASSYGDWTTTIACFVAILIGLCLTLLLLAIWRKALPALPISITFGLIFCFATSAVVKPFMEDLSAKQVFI
T1 sequence (Q9VC27 23-695 partner): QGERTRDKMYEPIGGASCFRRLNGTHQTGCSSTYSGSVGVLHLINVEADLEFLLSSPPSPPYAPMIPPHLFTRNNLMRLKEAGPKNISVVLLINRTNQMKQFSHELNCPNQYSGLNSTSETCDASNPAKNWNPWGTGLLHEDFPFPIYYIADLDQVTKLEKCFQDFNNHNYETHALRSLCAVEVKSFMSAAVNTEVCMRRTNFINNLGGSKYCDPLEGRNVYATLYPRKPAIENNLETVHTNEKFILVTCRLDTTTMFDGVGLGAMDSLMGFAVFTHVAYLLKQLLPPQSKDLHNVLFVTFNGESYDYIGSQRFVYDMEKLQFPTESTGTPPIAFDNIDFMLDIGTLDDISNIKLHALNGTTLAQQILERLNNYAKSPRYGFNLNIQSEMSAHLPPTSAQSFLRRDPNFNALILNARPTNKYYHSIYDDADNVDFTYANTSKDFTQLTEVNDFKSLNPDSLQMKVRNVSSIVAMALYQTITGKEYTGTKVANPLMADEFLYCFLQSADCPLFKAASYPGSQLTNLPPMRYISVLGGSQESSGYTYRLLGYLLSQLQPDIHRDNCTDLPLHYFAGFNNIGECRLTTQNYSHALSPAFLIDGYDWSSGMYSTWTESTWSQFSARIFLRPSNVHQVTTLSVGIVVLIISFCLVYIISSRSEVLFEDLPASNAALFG
T1 sequence (Q9VQG2 whole entry partner): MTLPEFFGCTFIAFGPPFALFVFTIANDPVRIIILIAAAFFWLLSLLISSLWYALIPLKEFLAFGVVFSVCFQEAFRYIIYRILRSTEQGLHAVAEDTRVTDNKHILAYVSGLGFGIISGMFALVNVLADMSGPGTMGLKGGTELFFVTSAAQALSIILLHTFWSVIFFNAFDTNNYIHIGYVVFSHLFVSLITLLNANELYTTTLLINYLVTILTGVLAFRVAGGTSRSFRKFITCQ
T1 sequence (Q86BE9 whole entry partner): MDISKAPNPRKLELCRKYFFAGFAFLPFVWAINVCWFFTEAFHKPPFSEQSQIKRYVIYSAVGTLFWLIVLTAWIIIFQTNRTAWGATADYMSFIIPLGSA
Description: (§1) For transfection, mini- or midi-prepped plasmid DNA (Qiagen) for each construct was adjusted to a stock concentration 100 ng/μl using a nanophotometer (Implen). For individual transfections a total amount of 200 ng DNA per 96-well plate well was used and always contained 30 ng of lexAop>FLuc2 (test construct reporter) and Act5.1Cp>RLuc (transfection control reporter), respectively. Test constructs (X-NRS-LexA) and TEV protease plasmids were added at 1:1 ratio (equimolarly adjusted to lexAop>FLuc2) to the DNA mixes; each DNA mix was supplemented with empty pBSK-SK+ vector (Stratagene) to 200 ng. S2 cells were cultured in Schneider's Drosophila medium (Invitrogen, Cat. no. 21720-024). Cultures were maintained in an air incubator at 25° C. S2 cells were split and plated into individual wells of a 96-well plate at a concentration of 5×10^5/well on day 0. 24 hours after plating (day 1), cells were transfected with Lipofectamine 2000 (Invitrogen, #11668019) with the suitable 1:1 plasmid/reagent mixture according to manufacturer's instructions and incubated for 48 hours. When induction of the metallothionein-promoter was required, CuSO4 stock medium was added in each well of the experiment to a final concentration of 0.5 mM CuSO4 24 hrs after transfection (day 2).
(§2) Cells were lysed on day 3 (48 hrs after transfection) and luciferase measurements with the Dual-Glo luciferase assay system (Promega) were performed according to the manufacturer's protocol. In brief, the supernatant was removed from each well by aspiration and cells were incubated with 200 μl passive lysis buffer on a shaker at room temperature for 30 min. Lysates were analyzed in 96-well plates with a Victor2 plate reader luminometer (PerkinElmer). Firefly and Renilla luciferase luminescence signals were collected for 10 s. Relative luciferase activities were calculated for each sample individually as principally described in Potter et al. (ref. 23) according to the following formula:
(F/R)Empty=(Σi=1^nFEmpty^i/REmpty^i)/n,
(§3) where n=number of control samples; F=Firefly luciferase luminescence signal; R=Renilla luciferase luminescence signal; Empty=lexAop>FLuc2+Ac5.1p>RLuc+BSK-SK+. Each condition was executed at least in triplicate, the average and SEM were determined for each condition, and statistical significance was evaluated using Student's t test. Plasmids used for transfection in S2 cells were: N^ECN-LexA, N^EGF-LexA, ChiN-Test, pChiN1, pChiN2, pChiN3, lexAop-FLuc2, Ac5.1-RLuc, secTEVp, intraTEVp, pBSK-SK+.

[1] = test system: lexAop-FLuc reporter in Drosophila Schneider 2 (S2) cells; experiment: Luciferase (lexAop-FLuc) reporter assay of NRS sensor constructs in S2 cells; assay type: cell-based; settings: FIG. 9; for reporter activity in luciferase assays: S2 cells
From the text: In order to conceptually establish the approach to fuse heterologous ECRs to the Notch^ITS to suppress its proteolytic activation, a sensor protein containing 4 immunoglobulin (Ig) domains of the human CD4 receptor fused to the Notch^ITS was engineered^28 (FIG. 7A).
As a positive control a constitutively active N^ECN-LexA receptor^34 with a constantly exposed S2 cleavage site was included (FIG. 7A,B).
Next, the extracellular CD4 repeats of the sensor protein were replaced with the ECR of an aGPCR, the Latrophilin/ADGRL-homolog CIRL/CG8639 (calcium independent receptor of α-latrotoxin) to enable the NRS to detect the physical dissociation of the NTF-CTF complex within the GAIN domain when appended to the Notch^ITS. Thus, the entire ECR of CIRL (including the GAIN domain, GPS, tethered agonist segment and predicted linker to the 7TM domain) was N-terminally fused to the NRS core (CIRL-NRS-LexA; FIG. 9). […] In order to distinguish between these two possibilities, we mutated the GPS of the sensor at the −2 position of its catalytic triad and replaced the conserved Histidin by an Alanine (FIG. 9) to block GAIN domain self-cleavage and eventual NTF release. […] This set of experiments establishes that the CIRL-NRS-LexA NRS can be used for monitoring the integrity of the NTF-CTF heterodimer clamped by the GAIN domain of CIRL.
as §1
as §2, with “In brief, the supernatant was removed from each well by aspiration and cells were incubated with 200 μl passive lysis buffer on a shaker at room temperature for 30 min.” left out, “formula: […]” for “formula:”
as §3, with “Plasmids used for transfection in S2 cells were: N^ECN-LexA, N^EGF-LexA, ChiN-Test, pChiN1, pChiN2, pChiN3, lexAop-FLuc2, Ac5.1-RLuc, secTEVp, intraTEVp, pBSK-SK+.” left out

Drosophila melanogaster = experiment: In vivo expression analysis of genomically integrated cirl-NRS sensors (transcriptionally activated mCherry reporter); settings: adult animals; for sensor activity (lexAop-mCherry reporter expression): FIG. 11
From the text: To test the utility of the NRS sensor principle in vivo, an existing genomic engineering platform^13,35 was used to encode NRS sensors in alleles of the adhesion GPCR cirl/CG8639 of Drosophila melanogaster. This places CIRL-NRS expression under the endogenous regulatory control of the cirl locus (FIG. 10A). The NRS design was adapted to generate minigenes for cirl-NRS-LexA, cirl^H>A-NRS-LexA and cirl-NRS^S3-LexA by fusing the genomic fragment encoding the CIRL-ECR to the NRS-LexA cDNA (FIG. 10A,B). The resulting transgenes were inserted in the cirl gene using phiC31-assisted transformation generating fly stocks expressing the different sensors variants from the cirl locus.
Next, the functionality of CIRL-NRS was further studied in anatomical expression analyses.
To control for potential misexpression inherent to the LexA transcriptional reporter, additional cirl-NRS transgenes alternatively terminating in Ga/4 or QF2 transcription factor cassettes were generated an analysed.

| Molecule | effect on reporter activity (γ-secretase; 10 μM DAPT, S2 cells) | reporter activity without DAPT vs. with 10 μM DAPT (γ-secretase; CD4-6TEVs-NRS-LexA construct) | reporter activity without DAPT vs. with 10 μM DAPT (γ-secretase; CD4-6TEVs-NRS-LexA+intraTEVp) | reporter activity without DAPT vs. with 10 μM DAPT (γ-secretase; CD4-6TEVs-NRS-LexA+secTEVp) | reporter activity without DAPT vs. with 10 μM DAPT (γ-secretase; Control) | reporter activity without DAPT vs. with 10 μM DAPT (γ-secretase; N^ECN-LexA construct) | reporter activity without DAPT vs. with 10 μM DAPT (γ-secretase; N^EGF-LexA construct) | reporter activity in luciferase assays [1] | luciferase reporter activity, fold difference ([1]; vs. Cirl-NRS^S3-LexA) | luciferase reporter activity, fold difference ([1]; vs. Cirl^H>A-NRS-LexA) | sensor activity (lexAop-mCherry reporter expression) (Drosophila melanogaster) | expression pattern with matching reporter transgenes (Drosophila melanogaster; FIG. 12) |
| --- | --- | --- | --- | --- | --- | --- | --- | --- | --- | --- | --- | --- |
| C[C@H](NC(=O)Cc1cc(F)cc(F)c1)C(=O)N[C@H](C(=O)OC(C)(C)C)c1ccccc1 [DAPT] | abolished reporter activity | 3.6 × | 7.0 × | 23.4 × | 1.1 × | 43.7 × | 5.8 × |  |  |  |  |  |
| CIRL-NRS-LexA: entire ECR of CIRL N-terminally fused to the NRS core; full-length NTF release sensor for dmCIRL (protein, Full-length NTF release sensor for dmCIRL used in Example 2) MKLCILLAVVAFVGLSLGETGFPKSLSVLNSRCAHKQSCGVLAATSMFGDPCPGTHKYLEAHYQCISAAQTSTTTNRPSPPPWVLSNGPPIFGNGSGLIHPPGVGAGAPPPPRLPTLPGVVGISGNPGLFNVPPQHTAVTHSTPSSSTTAVGGGRLKGGATSTTTTKHPAGRHDGLPPPPQLHHHHNHHGEDTASPTKPSSKLPAGGNATSPSNTRILTGVGGSGTDDGTLLTTKSSPNRPPGTAASGSVVPGNGSVVRTINNINLNAAGMSGGDDESKLFCGPTHARNLYWNMTRVGDVNVQPCPGGAAGIAKWRCVLMKRIPDSGYDEYDDDISSTTPAPSGGDCLHNSSSCEPPVSMAHKVNQRLRNFEPTWHPATPDLTQCRSLWLNNLEMRVNQRDSSLISIANDMSEVTSSKTLYGGDMLVTTKIIQTVSEKMMHDKETFPDQRQREAMIMELLHCVVKTGSNLLDESQLSSWLDLNPEDQMRVATSLLTGLEYNAFLLADTIIRERSVVQKVKNILLSVRVLETKTIQSSVVFPDSDQWPLSSDRIELPRAALIDNSEGGLVRIVFAAFDRLESILKPSYDHFDLKSSRSYAILSNDSDVNAGEIQQRLRILNSKVISASLGKGRHIQLSQPITLTLKHLKTENVTNPTCVFWNYIDHAWSANGCSLESTNRTHSVCSCNHLTNFAILMDVVDEHQHSLFTMFDGNMRPRIDTAAKHQLRNDFQIHSVRGIKNPGDEDNGEPPANVKYVITGIILVIIALAFFGMVLSTQRKRSGPPKLKALTARQQEVFDLIRDHISQTGMPPTRAEIAQRLGFRSPNAAEEHLKALARKGVIEIVSGASRGIRLLQEEEEGLPLVGRVAAGEPLLAQQHIEGHYQVDPSLFKPNADFLLRVSGMSMKDIGIMDGDLLAVHKTQDVRNGQVVVARIDDEVTVKRLKKQGNKVELLPENSEFKPIVVDLRQQSFTIEGLAVGVIRNGDWLEFPGIRRPAGIPGDLAPPTDVSLGDELHLDGEDVAMAHADALDDFDLDMLGDGDSPGPGFTPHDSAPYGALDMADFEFEQMFTDALGIDEYGGASRYLDPAFLYKVVSSATMDYKDHDGDYKDHDIDYKDDDDKHRST |  |  |  |  |  |  |  | high activity | 23.7 × | 148.8 × | strong expression in the eye, proboscis and leg neurons | strong activation |
| CIRL^H>A-NRS-LexA: NTF release sensor for dmCIRL, GPS cleavage site mutated (His to Ala at −2) (protein, Full-length NTF release sensor for dmCIRL (GPS cleavage site mutated)) MKLCILLAVVAFVGLSLGETGFPKSLSVLNSRCAHKQSCGVLAATSMFGDPCPGTHKYLEAHYQCISAAQTSTTTNRPSPPPWVLSNGPPIFGNGSGLIHPPGVGAGAPPPPRLPTLPGVVGISGNPGLFNVPPQHTAVTHSTPSSSTTAVGGGRLKGGATSTTTTKHPAGRHDGLPPPPQLHHHHNHHGEDTASPTKPSSKLPAGGNATSPSNTRILTGVGGSGTDDGTLLTTKSSPNRPPGTAASGSVVPGNGSVVRTINNINLNAAGMSGGDDESKLFCGPTHARNLYWNMTRVGDVNVQPCPGGAAGIAKWRCVLMKRIPDSGYDEYDDDISSTTPAPSGGDCLHNSSSCEPPVSMAHKVNQRLRNFEPTWHPATPDLTQCRSLWLNNLEMRVNQRDSSLISIANDMSEVTSSKTLYGGDMLVTTKIIQTVSEKMMHDKETFPDQRQREAMIMELLHCVVKTGSNLLDESQLSSWLDLNPEDQMRVATSLLTGLEYNAFLLADTIIRERSVVQKVKNILLSVRVLETKTIQSSVVFPDSDQWPLSSDRIELPRAALIDNSEGGLVRIVFAAFDRLESILKPSYDHFDLKSSRSYAILSNDSDVNAGEIQQRLRILNSKVISASLGKGRHIQLSQPITLTLKHLKTENVTNPTCVFWNYIDHAWSANGCSLESTNRTHSVCSCNALTNFAILMDVVDEHQHSLFTMFDGNMRPRIDTAAKHQLRNDFQIHSVRGIKNPGDEDNGEPPANVKYVITGIILVIIALAFFGMVLSTQRKRSGPPKLKALTARQQEVFDLIRDHISQTGMPPTRAEIAQRLGFRSPNAAEEHLKALARKGVIEIVSGASRGIRLLQEEEEGLPLVGRVAAGEPLLAQQHIEGHYQVDPSLFKPNADFLLRVSGMSMKDIGIMDGDLLAVHKTQDVRNGQVVVARIDDEVTVKRLKKQGNKVELLPENSEFKPIVVDLRQQSFTIEGLAVGVIRNGDWLEFPGIRRPAGIPGDLAPPTDVSLGDELHLDGEDVAMAHADALDDFDLDMLGDGDSPGPGFTPHDSAPYGALDMADFEFEQMFTDALGIDEYGGASRYLDPAFLYKVVSSATMDYKDHDGDYKDHDIDYKDDDDKHRST |  |  |  |  |  |  |  | no reporter activity |  |  | abrogated NRS activation |  |
